Laboratory results published in patent US9981916B2 (Genentech, Inc., priority 2013, dated 2018).

target: T1, RORc ligand binding domain (Homo sapiens, UniProt P51449); assay: In vitro RORc ligand binding assay (25-[3H]hydroxycholesterol displacement, filter binding); conditions: 6 nM 25-[3H]hydroxycholesterol, 0.6 ug/mL RORc receptor, 3 h at 25° C.
T1 construct: host or cells: E. coli
T1 sequence (P51449 269-508 limits assumed): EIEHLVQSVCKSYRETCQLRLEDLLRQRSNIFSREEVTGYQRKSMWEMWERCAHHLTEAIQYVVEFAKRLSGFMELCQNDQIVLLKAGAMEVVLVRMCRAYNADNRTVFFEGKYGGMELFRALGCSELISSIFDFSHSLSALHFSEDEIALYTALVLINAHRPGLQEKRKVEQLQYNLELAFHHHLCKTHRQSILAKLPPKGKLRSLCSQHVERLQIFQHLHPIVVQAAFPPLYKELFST
Method in brief: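 Filter-binding displacement of 6 nM 25-[3H]hydroxycholesterol from RORc receptor (0.6 ug/mL) in 50 mM HEPES pH 7.4, 150 mM NaCl, 5 mM MgCl2, 1 mM DTT, 0.01% BSA, 5% DMSO; 3 h at 25° C. NSB defined with 1 uM 25-hydroxycholesterol; scintillation counting gave Kiapp, IC50 or % inhibition (screening at 1 and 10 uM).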

Which IC50 does the source give for `CC1(C)[C@@H]2CC[C@@]1(C(=O)N1CC3(CCC3)C1)c1nnc(-c3c(F)cccc3F)cc12` [Example 240, ((5S,8S)-3-(2,6-difluorophenyl)-9,9-dimethyl-5,6,7,8-tetrahydro-5,8-methanocinnolin-8-yl)(2-azaspiro[3.3]heptan-2-yl)methanone] here?
Its IC50 is 217 nM.

For `CC(=O)N[C@@]12CC[C@@H](c3cc(-c4ccccc4F)nnc31)C2(C)C` [Example 81, N-[(5R,8R)-3-(2-fluorophenyl)-9,9-dimethyl-6,7-dihydro-5,8-methanocinnolin-8(5H)-yl]acetamide], which IC50 is on record?
Its IC50 is 2070 nM.

Which IC50 does the source give for `CC1(C)[C@H]2CC[C@]1(n1cnnc1)c1nnc(-c3c(F)cccc3F)cc12` [Example 107, (5R,8R)-3-(2,6-difluorophenyl)-9,9-dimethyl-8-(4H-1,2,4-triazol-4-yl)-5,6,7,8-tetrahydro-5,8-methanocinnoline] here?
The IC50 was 1500 nM.

How did the IC50 turn out when `CC1(C)[C@@H]2CC[C@@]1(C(=O)NC1CCC1)c1nnc(-c3ccccc3F)cc12` [Example 333, (5S,8S)-N-cyclobutyl-3-(2-fluorophenyl)-9,9-dimethyl-5,6,7,8-tetrahydro-5,8-methanocinnoline-8-carboxamide] was run?
The IC50 was 1500 nM.

`CC1(C)[C@@H]2CC[C@@]1(C(=O)N1CCC3(COC3)C1)c1nnc(-c3c(F)cccc3F)cc12` [Example 218, ((5S,8S)-3-(2,6-difluorophenyl)-9,9-dimethyl-5,6,7,8-tetrahydro-5,8-methanocinnolin-8-yl)(2-oxa-6-azaspiro[3.4]octan-6-yl)methanone] was tested. Which IC50 did it give?
The IC50 was 2440 nM.

`CC(=O)N(C)C1CCN(C(=O)[C@]23CC[C@H](c4cc(-c5c(F)cccc5F)nnc42)C3(C)C)C1` (stereo partly drawn) [Example 203, N-(1-((5S,8S)-3-(2,6-difluorophenyl)-9,9-dimethyl-5,6,7,8-tetrahydro-5,8-methanocinnoline-8-carbonyl)pyrrolidin-3-yl)-N-methylacetamide] was tested. Which IC50 did it give?
Its IC50 is 1220 nM.

How did the IC50 turn out when `CC1(C)[C@H]2CC[C@]1(C(N)=O)c1nnc(-c3c(F)cccc3F)cc12` [Example 77, (5R,8R)-3-(2,6-difluorophenyl)-9,9-dimethyl-6,7-dihydro-5,8-methanocinnoline-8(5H)-carboxamide] was run?
Its IC50 is 1460 nM.

Which IC50 does the source give for `CC1(C)[C@@H]2CC[C@@]1(C(=O)N1C[C@@H]3C[C@H]1CO3)c1nnc(-c3c(F)cccc3F)cc12` [Example 231, (1S,4S)-2-oxa-5-azabicyclo[2.2.1]heptan-5-yl((5S,8S)-3-(2,6-difluorophenyl)-9,9-dimethyl-5,6,7,8-tetrahydro-5,8-methanocinnolin-8-yl)methanone] here?
Its IC50 is 241 nM.

Which IC50 does the source give for `CC1(C)[C@H]2CC[C@]1(C(=O)NC1CCC1)c1nnc(-c3ccccc3F)cc12` [Example 177, (5R,8R)-N-cyclobutyl-3-(2-fluorophenyl)-9,9-dimethyl-5,6,7,8-tetrahydro-5,8-methanocinnoline-8-carboxamide] here?
The IC50 was 1500 nM.

Which IC50 does the source give for `CC1(C)[C@H]2CC[C@]1(c1ccnn1CCO)c1nnc(-c3c(F)cccc3F)cc12` [Example 269, 2-(5-((5R,8S)-3-(2,6-difluorophenyl)-9,9-dimethyl-5,6,7,8-tetrahydro-5,8-methanocinnolin-8-yl)-1H-pyrazol-1-yl)ethanol] here?
Its IC50 is 423 nM.

With `CCNC(=O)[C@]12CC[C@H](c3cc(-c4ccccc4F)nnc31)C2(C)C` [Example 134, (5S,8S)-N-ethyl-3-(2-fluorophenyl)-9,9-dimethyl-5,6,7,8-tetrahydro-5,8-methanocinnoline-8-carboxamide] as the compound, how does the IC50 read?
The IC50 was 211 nM.

For `CN(C)C(=O)N[C@@]12CC[C@@H](c3cc(-c4c(F)cccc4F)nnc31)C2(C)C` [Example 320, 3-((5R,8R)-3-(2,6-difluorophenyl)-9,9-dimethyl-5,6,7,8-tetrahydro-5,8-methanocinnolin-8-yl)-1,1-dimethylurea], which IC50 is on record?
The IC50 was 1500 nM.

With `C[C@@H]1COC(=O)N1C[C@@]12CC[C@@H](c3cc(-c4c(F)cccc4F)nnc31)C2(C)C` [Example 294, (R)-3-(((5R,8S)-3-(2,6-difluorophenyl)-9,9-dimethyl-5,6,7,8-tetrahydro-5,8-methanocinnolin-8-yl)methyl)-4-methyloxazolidin-2-one] as the compound, how does the IC50 read?
Its IC50 is 103 nM.

`CN1CCN(C[C@]23CC[C@H](c4cc(-c5ccccc5F)nnc42)C3(C)C)C1=O` [Example 46, 1-{[(5S,8R)-3-(2-fluorophenyl)-9,9-dimethyl-6,7-dihydro-5,8-methanocinnolin-8(5H)-yl]methyl}-3-methylimidazolidin-2-one] was tested. Which IC50 did it give?
Its IC50 is 1450 nM.

How did the IC50 turn out when `Cc1ncc([C@@]23CC[C@@H](c4cc(-c5c(F)cccc5F)nnc42)C3(C)C)o1` [Example 117, (5R,8R)-3-(2,6-difluorophenyl)-9,9-dimethyl-8-(2-methyl-1,3-oxazol-5-yl)-5,6,7,8-tetrahydro-5,8-methanocinnoline] was run?
Its IC50 is 19 nM.

With `CN(C(=O)OCCO)[C@@]12CC[C@@H](c3cc(-c4c(F)cccc4F)nnc31)C2(C)C` [Example 299, 2-hydroxyethyl ((5R,8R)-3-(2,6-difluorophenyl)-9,9-dimethyl-5,6,7,8-tetrahydro-5,8-methanocinnolin-8-yl)(methyl)carbamate] as the compound, how does the IC50 read?
The IC50 was 1480 nM.

Which IC50 does the source give for `CC(C)(O)[C@@]12CC[C@@H](c3cc(-c4c(F)cccc4F)nnc31)C2(C)C` [Example 300, 2-((5R,8R)-3-(2,6-difluorophenyl)-9,9-dimethyl-5,6,7,8-tetrahydro-5,8-methanocinnolin-8-yl)propan-2-ol] here?
Its IC50 is 28 nM.

With `CC1(C)[C@H]2CC[C@]1(c1ccon1)c1nnc(-c3c(F)cccc3F)cc12` [Example 197, 3-((5R,8R)-3-(2,6-difluorophenyl)-9,9-dimethyl-5,6,7,8-tetrahydro-5,8-methanocinnolin-8-yl)isoxazole] as the compound, how does the IC50 read?
Its IC50 is 44 nM.

Which IC50 does the source give for `CNC(=O)[C@H]1[C@@H]2CN(C(=O)[C@]34CC[C@H](c5cc(-c6c(F)cccc6F)nnc53)C4(C)C)C[C@@H]21` [Example 222, (1R,5S,6S)-3-((5S,8S)-3-(2,6-difluorophenyl)-9,9-dimethyl-5,6,7,8-tetrahydro-5,8-methanocinnoline-8-carbonyl)-N-methyl-3-azabicyclo[3.1.0]hexane-6-carboxamide] here?
Its IC50 is 1430 nM.

Which IC50 does the source give for `CC1(C)[C@@H]2CC[C@@]1(C(=O)N1CCC[C@H]1C(N)=O)c1nnc(-c3c(F)cccc3F)cc12` [Example 250, (S)-1-((5S,8S)-3-(2,6-difluorophenyl)-9,9-dimethyl-5,6,7,8-tetrahydro-5,8-methanocinnoline-8-carbonyl)pyrrolidine-2-carboxamide] here?
Its IC50 is 3090 nM.

How did the IC50 turn out when `CC1(C)[C@H]2C[C@@H](F)[C@]1(C)c1nnc(-c3ccccc3F)cc12` [Example 31, (5R,7R,8S)-7-fluoro-3-(2-fluorophenyl)-8,9,9-trimethyl-5,6,7,8-tetrahydro-5,8-methanocinnoline] was run?
Its IC50 is 2130 nM.

With `CC1(C)[C@H]2CC[C@]1(C)c1nnc(Oc3ccccc3F)cc12` [Example 98, (5R,8S)-3-(2-fluorophenoxy)-8,9,9-trimethyl-5,6,7,8-tetrahydro-5,8-methanocinnoline] as the compound, how does the IC50 read?
The IC50 was 600 nM.

Which IC50 does the source give for `CCN(C[C@]12CC[C@H](c3cc(-c4c(F)cccc4F)nnc31)C2(C)C)C(=O)CCC(N)=O` [Example 342, N1-(((5S,8R)-3-(2,6-difluorophenyl)-9,9-dimethyl-5,6,7,8-tetrahydro-5,8-methanocinnolin-8-yl)methyl)-N1-ethylsuccinamide] here?
Its IC50 is 28 nM.

`CC1(C)[C@H]2C(=O)C[C@]1(C)c1nnc(-c3ccccc3F)cc12` [Example 127, (5R,8S)-3-(2-fluorophenyl)-8,9,9-trimethyl-7,8-dihydro-5,8-methanocinnolin-6(5H)-one] was tested. Which IC50 did it give?
The IC50 was 1700 nM.

How did the IC50 turn out when `CC1(C)[C@H]2CC[C@]1(CN1CCNC1=O)c1nnc(-c3c(F)cccc3F)cc12` [Example 268, 1-(((5R,8S)-3-(2,6-difluorophenyl)-9,9-dimethyl-5,6,7,8-tetrahydro-5,8-methanocinnolin-8-yl)methyl)imidazolidin-2-one] was run?
Its IC50 is 321 nM.

Which IC50 does the source give for `CC1(C)[C@H]2CC[C@]1(CN(CCC#N)C(=O)CO)c1nnc(-c3c(F)cccc3F)cc12` [Example 316, N-(2-cyanoethyl)-N-(((5R,8S)-3-(2,6-difluorophenyl)-9,9-dimethyl-5,6,7,8-tetrahydro-5,8-methanocinnolin-8-yl)methyl)-2-hydroxyacetamide] here?
The IC50 was 233 nM.

Which IC50 does the source give for `CCNC(=O)N(C)[C@@]12CC[C@@H](c3cc(-c4c(F)cccc4F)nnc31)C2(C)C` [Example 285, 1-((5R,8R)-3-(2,6-difluorophenyl)-9,9-dimethyl-5,6,7,8-tetrahydro-5,8-methanocinnolin-8-yl)-3-ethyl-1-methylurea] here?
Its IC50 is 2070 nM.

How did the IC50 turn out when `CN(C)C(=O)C[C@]12CC[C@H](c3cc(-c4ccccc4F)nnc31)C2(C)C` [Example 36, 2-[(5S,8S)-3-(2-fluorophenyl)-9,9-dimethyl-6,7-dihydro-5,8-methanocinnolin-8(5H)-yl]-N,N-dimethylacetamide] was run?
Its IC50 is 5170 nM.

With `CC1(C)[C@H]2CC[C@]1(Cc1noc(CO)n1)c1nnc(-c3c(F)cccc3F)cc12` [Example 61, (3-{[(5R,8R)-3-(2,6-difluorophenyl)-9,9-dimethyl-6,7-dihydro-5,8-methanocinnolin-8(5H)-yl]methyl}-1,2,4-oxadiazol-5-yl)methanol] as the compound, how does the IC50 read?
Its IC50 is 323 nM.

With `CC1(C)[C@@H]2CC[C@@]1(C(=O)NCC1CC1)c1nnc(-c3ccccc3F)cc12` [Example 132, (5S,8S)-N-(cyclopropylmethyl)-3-(2-fluorophenyl)-9,9-dimethyl-5,6,7,8-tetrahydro-5,8-methanocinnoline-8-carboxamide] as the compound, how does the IC50 read?
The IC50 was 707 nM.
